# Several values for one entry are separate records, joined by “and”; a condition that tells them apart may be missing. Equal entries are not always repeated.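 Cells were grown in 96-well plates and exposed to each compound for 48 hours at five concentrations; endpoints were interpolated linearly between bracketing concentrations, or set to the highest concentration if not reached. Here, GI50 denotes the concentration required for 50% inhibition of growth. TGI: total growth inhibition.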
# Columns and labels:
# Assay in all cases: growth of human tumour cells (NCI), 48 h
# SF-539 CNS = test system: SF-539 CNS
# HOP-92 NSCLC = test system: HOP-92 NSCLC
# RXF 393 renal = test system: RXF 393 renal
# HS 578T breast = test system: HS 578T breast
# OVCAR-5 ovarian = test system: OVCAR-5 ovarian
# SK-MEL-28 melanoma = test system: SK-MEL-28 melanoma
# SK-MEL-2 melanoma = test system: SK-MEL-2 melanoma
# CCRF-CEM leukemia = test system: CCRF-CEM leukemia
# SR leukemia = test system: SR leukemia
# ACHN renal = test system: ACHN renal
Structure (SMILES),TGI (SF-539 CNS),TGI (HOP-92 NSCLC),TGI (RXF 393 renal),TGI (HS 578T breast),TGI (OVCAR-5 ovarian),TGI (SK-MEL-28 melanoma),TGI (SK-MEL-2 melanoma),TGI (CCRF-CEM leukemia),TGI (SR leukemia),TGI (ACHN renal),GI50 (SF-539 CNS),GI50 (HOP-92 NSCLC),GI50 (RXF 393 renal),GI50 (OVCAR-5 ovarian),GI50 (SK-MEL-28 melanoma),GI50 (SR leukemia),GI50 (ACHN renal),GI50 (HS 578T breast),GI50 (SK-MEL-2 melanoma),GI50 (CCRF-CEM leukemia)
OC1C[C@H](c2ccccc2)C2(C(O)c3ccccc3C2O)[C@@H](c2ccccc2)C1 (stereo partly drawn),> 100 µM,> 100 µM,> 100 µM,> 100 µM,> 100 µM,> 100 µM,> 100 µM,> 100 µM,68.1 µM,> 100 µM,–,–,–,–,–,–,–,–,–,–
CCOc1ccc2c(c1)c(=O)c1c(NCCN(CC)CC)ccc3nnn2c31,24.1 µM,> 100 µM,25.5 µM,> 100 µM,> 54.8 µM,> 55 µM,> 100 µM,25.7 µM,50.1 µM,> 56.1 µM,–,–,–,–,–,–,–,–,–,–
CCC(NC1=NCCO1)c1cccs1 (stereo not drawn),29.8 µM,32.6 µM,33.2 µM,26.4 µM,30.7 µM,29 µM,29.4 µM,65.4 µM,> 100 µM,29.4 µM,–,–,–,–,–,–,–,–,–,–
Cc1cn(S(=O)(=O)c2ccccc2)c2c(OCc3ccccc3)cc(NS(C)(=O)=O)cc12,> 100 µM,> 89.8 µM,> 100 µM,> 100 µM,> 100 µM,> 100 µM,63.5 µM,> 100 µM,> 100 µM,> 100 µM,–,–,–,–,–,–,–,–,–,–
NC(N)=NCCCC(NC(=O)OCCCCn1ccc(N)nc1=O)C(=O)O (stereo not drawn),> 100 µM,> 100 µM,> 100 µM,> 100 µM,> 100 µM,> 100 µM,> 100 µM,> 100 µM,> 100 µM,> 100 µM,–,–,–,–,–,–,–,–,–,–
Cn1c(O)c(C=Nc2ccccc2Cl)c(=O)n(C)c1=O,60.7 µM,> 100 µM,45.4 µM,> 100 µM,63.2 µM,–,41.1 µM,49 µM,55.9 µM,92.2 µM,–,–,–,–,–,–,–,–,–,–
CC(=O)OC1COC(Nc2nc(N)n(C)c(=O)c2N=O)C(OC(C)=O)C1OC(C)=O (stereo not drawn),> 10 µM,> 10 µM,> 10 µM,> 10 µM,> 10 µM,> 10 µM,> 10 µM,> 10 µM,> 10 µM,> 10 µM,–,–,–,–,–,–,–,–,–,–
CC1=NN(c2nc(N)nc(CF)n2)C(C)(C)C1,> 100 µM,> 100 µM,> 100 µM,> 100 µM,–,> 100 µM,> 100 µM,> 100 µM,> 100 µM,> 100 µM,–,–,–,–,–,–,–,–,–,–
CN(C)/N=N/c1nc[nH]c1C(N)=O,99.3 µM and > 875 µM,87.1 µM and 796 µM,99.4 µM and > 165 µM,> 1000 µM,> 1000 µM,> 1000 µM,74.1 µM and 396 µM,90.1 µM and > 731 µM,> 1000 µM,> 1000 µM,47.5 µM,74 µM,93.3 µM,> 788 µM,595 µM,64.4 µM,32.5 µM and 76.6 µM,–,–,–
CCOC(=O)/C=C(\C(=O)OCC)n1ccc(=O)[nH]c1=O,75.1 µM,9.04 µM,24.6 µM,99.8 µM,34.8 µM,33.4 µM,50 µM,6.2 µM,29.7 µM,23.6 µM,–,–,–,–,–,–,–,–,–,–
Oc1cc(Br)cc2cc(Cl)cnc12,> 100 µM,> 100 µM,15.2 µM,12.1 µM,> 100 µM,> 100 µM,95.9 µM,7.23 µM,> 30.2 µM,> 68 µM,–,–,–,–,–,–,–,–,–,–
CC(C)(C)CC(C)(C)c1ccc(O)c(C[N+](C)(C)[O-])c1,> 100 µM,> 100 µM,> 100 µM,> 100 µM,> 100 µM,> 100 µM,> 100 µM,> 100 µM,> 100 µM,> 100 µM,–,–,–,–,–,–,–,–,–,–
S=c1[nH]c2ccc(I)cc2c(=S)n1Cc1ccccc1,37.2 µM,9.34 µM,9.21 µM,> 100 µM,43.9 µM,> 100 µM,18 µM,6.06 µM,14.9 µM,58.7 µM,–,–,–,–,–,–,–,–,–,–
Cc1cc(S(=O)(=O)/N=C(/NN)NNc2cccc(C(F)(F)F)n2)c(S)cc1Cl,43.6 µM,23.8 µM,57.2 µM,54.4 µM,29.5 µM,33.5 µM,63.2 µM,63.6 µM,55.1 µM,50.1 µM,–,–,–,–,–,–,–,–,–,–
O=C1CC2CCC(C1)S2=O (stereo not drawn),> 100 µM,> 100 µM,> 100 µM,> 100 µM,–,> 100 µM,> 100 µM,> 100 µM,> 100 µM,–,–,–,–,–,–,–,–,–,–,–
Oc1ccc(Cl)cc1C1=NC(/N=C\c2ccccc2)=NC(c2ccccc2)C1 (stereo not drawn),> 100 µM,> 100 µM,> 100 µM,> 100 µM,> 100 µM,> 100 µM,> 100 µM,> 100 µM,45 µM,–,–,–,–,–,–,–,–,–,–,–
O=C(O)CCC(NC(=O)c1ccc(Nc2nc3cc(C(F)(F)F)ccc3nc2C(=O)O)cc1)C(=O)O (stereo not drawn),> 100 µM,> 100 µM,> 100 µM,> 100 µM,> 100 µM,> 100 µM,> 100 µM,> 100 µM,> 100 µM,> 100 µM,–,–,–,–,–,–,–,–,–,–

Structure (SMILES),TGI (SF-539 CNS),TGI (HOP-92 NSCLC),TGI (RXF 393 renal),TGI (HS 578T breast),TGI (OVCAR-5 ovarian),TGI (SK-MEL-28 melanoma),TGI (SK-MEL-2 melanoma),TGI (CCRF-CEM leukemia),TGI (SR leukemia),TGI (ACHN renal),GI50 (SF-539 CNS),GI50 (HOP-92 NSCLC),GI50 (RXF 393 renal),GI50 (OVCAR-5 ovarian),GI50 (SK-MEL-28 melanoma),GI50 (SR leukemia),GI50 (ACHN renal),GI50 (HS 578T breast),GI50 (SK-MEL-2 melanoma),GI50 (CCRF-CEM leukemia)
CCN1CCC(O)(/C=C/c2ccc(C(C)C)cc2)C(C(=O)/C=C/c2ccc(C(C)C)cc2)C1 (stereo not drawn),4.58 µM,3.69 µM,6.59 µM,5.68 µM,12 µM,11.7 µM,10.5 µM,4.36 µM,> 20.9 µM,3.31 µM,–,–,–,–,–,–,–,–,–,–
C=C1CN(C2=NCCO2)C1,> 100 µM,> 100 µM,> 100 µM,> 100 µM,> 100 µM,> 100 µM,> 100 µM,> 100 µM,> 100 µM,> 100 µM,–,–,–,–,–,–,–,–,–,–
O=C(CSc1nc2ccccc2c(=O)n1-c1ccccc1)N=Nc1c(O)[nH]c2ccc(F)cc12,9.21 µM,4.17 µM,4.09 µM,> 100 µM,4.73 µM,4.54 µM,3.59 µM,5.04 µM,4.21 µM,–,–,–,–,–,–,–,–,–,–,–
COc1cc(CS(=O)c2ccc(O)cc2)cc(OC)c1OC (stereo not drawn),> 100 µM,> 100 µM,> 100 µM,> 100 µM,> 100 µM,> 100 µM,> 100 µM,> 100 µM,> 100 µM,> 100 µM,–,–,–,–,–,–,–,–,–,–
Cc1ccc([N+](=O)[O-])c2c(NCC(O)CO)ccnc12 (stereo not drawn),48.6 µM,> 100 µM,> 100 µM,> 100 µM,> 100 µM,> 100 µM,53.9 µM,> 100 µM,> 100 µM,> 100 µM,–,–,–,–,–,–,–,–,–,–
C=C(C(=O)O[C@H]1C(=O)C2=C(C)CCC3C(=C)C(=O)O[C@@H]3C2[C@]1(C)O)C1CC[C@]2(C)CCCC(=C)[C@H]2C1 (stereo partly drawn),16.5 µM and 10.3 µM,14.2 µM and 11.3 µM,2.52 µM and 3.65 µM,15.8 µM,25 µM and 41 µM,12.5 µM,20.3 µM and 23.5 µM,0.106 µM,> 100 µM,11 µM and 8.85 µM,7.16 µM,7.27 µM,1.79 µM,9.64 µM,–,–,5.19 µM,–,–,–
CC1(C)CCc2c(c(N=Nc3ccc(F)cc3)c3ccccc3c2O)O1,> 100 µM,> 100 µM,> 100 µM,> 100 µM,> 100 µM,> 100 µM,93 µM,41 µM,77.4 µM,> 100 µM,–,–,–,–,–,–,–,–,–,–
CN1CCN(C2=CC(=O)c3c(O)ccc(O)c3C2=O)CC1,2.96 µM,3.29 µM,2.93 µM,4.1 µM,–,3 µM,4.08 µM,3.03 µM,8.1 µM,2.88 µM,–,–,–,–,–,–,–,–,–,–
COc1ccc(N2NC(c3ccccc3)(c3ccccc3)C(C)C2=O)cc1 (stereo not drawn),> 100 µM,> 100 µM,> 100 µM,> 100 µM,> 100 µM,> 100 µM,> 100 µM,> 100 µM,> 100 µM,> 100 µM,–,–,–,–,–,–,–,–,–,–
Cc1sc2nc3n(c(=O)c2c1C)N=CN(c1ccc(F)cc1)C3,–,83.9 µM,> 100 µM,79.2 µM,> 100 µM,> 100 µM,> 100 µM,> 100 µM,> 100 µM,> 100 µM,–,–,–,–,–,–,–,–,–,–
c1ccc(CN2CCN3CCN(CC2)CCN(Cc2ccccc2)CC3)cc1,21.6 µM,21.9 µM,21.3 µM,35.5 µM,28.6 µM,18.4 µM,8.06 µM,26.1 µM,16.5 µM,65.6 µM,–,–,–,–,–,–,–,–,–,–
CCCCCCCCCCCCCC(=O)N(CCCCCCCCC)CC(O)C(O)C(OC1OC(CO)C(O)C(O)C1O)C(O)CO (stereo not drawn),51.3 µM,34 µM,54.9 µM,51.9 µM,> 100 µM,33.6 µM,59 µM,45.4 µM,46.2 µM,30.5 µM,–,–,–,–,–,–,–,–,–,–
Cc1c(C(=O)O)n2cnnc2c2ccccc12,> 100 µM,> 100 µM,> 100 µM,> 100 µM,> 100 µM,> 100 µM,> 100 µM,> 100 µM,> 100 µM,> 100 µM,–,–,–,–,–,–,–,–,–,–
COc1ccc(-c2nn(-c3ccc(NC(=O)Nc4ccc(Cl)c(C(F)(F)F)c4)cc3)cc2-c2ccncc2)cc1Cl,4 µM,3.84 µM,2.19 µM,4.22 µM,5.96 µM,3.64 µM,3.75 µM,6.65 µM,5.96 µM,5.27 µM,1.53 µM,1.14 µM,0.74 µM,1.88 µM,1.67 µM,1.86 µM,1.6 µM,1.1 µM,1.74 µM,1.4 µM
CN(Cc1cc(Cl)c(Cl)cc1NC(=O)CN)[C@H]1CCCC[C@@H]1N1CCCC1,–,> 100 µM,> 100 µM,58.5 µM,> 100 µM,41.5 µM,31.9 µM,> 100 µM,49.9 µM,> 100 µM,–,–,–,–,–,–,–,–,–,–
COc1ccc(C(=O)/C=C/c2cc(O)c(O)cc2F)c(OC)c1,31 µM,> 100 µM,26.7 µM,> 65.3 µM,33.5 µM,31.1 µM,18.3 µM,15.2 µM,14.1 µM,> 63.3 µM,–,–,–,–,–,–,–,–,–,–
Cc1ccc(NC(=O)CSC(N)=O)cc1C,> 100 µM,> 100 µM,> 100 µM,> 100 µM,> 100 µM,> 100 µM,> 100 µM,> 100 µM,> 100 µM,> 100 µM,–,–,–,–,–,–,–,–,–,–
